Test results reported in PubChem BioAssay (NCI).
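GI50 = concentration required for 50% inhibition of growth. TGI is the concentration that stops growth completely.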

Columns and labels:
Test in all cases: NCI tumour cell line growth inhibition, 384-well format
HOP-62 NSCLC = test system: HOP-62 NSCLC
IGROV1 ovarian = test system: IGROV1 ovarian
NCI-H23 lung = test system: NCI-H23 lung
SN12C renal = test system: SN12C renal
MOLT-4 leukemia = test system: MOLT-4 leukemia
NCI-H522 lung = test system: NCI-H522 lung
M14 melanoma = test system: M14 melanoma
RXF 393 renal = test system: RXF 393 renal
MDA-MB-468 breast = test system: MDA-MB-468 breast
SK-MEL-5 melanoma = test system: SK-MEL-5 melanoma
EKVX NSCLC = test system: EKVX NSCLC
MDA-MB-435 melanoma = test system: MDA-MB-435 melanoma
HT29 colon = test system: HT29 colon
KM12 colon = test system: KM12 colon
TK-10 renal = test system: TK-10 renal
NCI-H322M lung = test system: NCI-H322M lung
OVCAR-5 ovarian = test system: OVCAR-5 ovarian
NCI-H226 lung = test system: NCI-H226 lung
PC-3 prostate = test system: PC-3 prostate
HL-60(TB) leukemia = test system: HL-60(TB) leukemia
NCI-H460 NSCLC = test system: NCI-H460 NSCLC
OVCAR-3 ovarian = test system: OVCAR-3 ovarian
HOP-92 NSCLC = test system: HOP-92 NSCLC
MALME-3M melanoma = test system: MALME-3M melanoma
786-0 renal = test system: 786-0 renal
SNB-19 CNS = test system: SNB-19 CNS
CCRF-CEM leukemia = test system: CCRF-CEM leukemia
COLO 205 colon = test system: COLO 205 colon
MCF7 breast = test system: MCF7 breast
T-47D breast = test system: T-47D breast
SF-539 CNS = test system: SF-539 CNS
RPMI-8226 leukemia = test system: RPMI-8226 leukemia
SK-OV-3 ovarian = test system: SK-OV-3 ovarian
OVCAR-4 ovarian = test system: OVCAR-4 ovarian
LOX IMVI melanoma = test system: LOX IMVI melanoma
K-562 leukemia = test system: K-562 leukemia
BT-549 breast = test system: BT-549 breast
UACC-257 melanoma = test system: UACC-257 melanoma
A549 NSCLC = test system: A549 NSCLC
SF-268 CNS = test system: SF-268 CNS
ACHN renal = test system: ACHN renal
HCT-15 colon = test system: HCT-15 colon
CAKI-1 renal = test system: CAKI-1 renal
HCC-2998 colon = test system: HCC-2998 colon
UO-31 renal = test system: UO-31 renal
SNB-75 CNS = test system: SNB-75 CNS
SR leukemia = test system: SR leukemia
SK-MEL-28 melanoma = test system: SK-MEL-28 melanoma
HS 578T breast = test system: HS 578T breast
OVCAR-8 ovarian = test system: OVCAR-8 ovarian
NCI/ADR-RES ovarian = test system: NCI/ADR-RES ovarian
SW-620 colon = test system: SW-620 colon
UACC-62 melanoma = test system: UACC-62 melanoma
SF-295 CNS = test system: SF-295 CNS
DU-145 prostate = test system: DU-145 prostate
A498 renal = test system: A498 renal
MDA-MB-231 breast = test system: MDA-MB-231 breast

Question: Which GI50 (HOP-62 NSCLC) does the source give for `Cc1cc2c(C(N)=O)cccc2n1-c1nc2c(c(NCc3ccccc3)n1)CCCN2` here?
Answer: 167 nM

Question: What about the TGI (HOP-62 NSCLC) of the same compound?
Answer: 305 nM

Question: And the GI50 (IGROV1 ovarian)?
Answer: 168 nM

Question: What about the TGI (IGROV1 ovarian) of the same compound?
Answer: 315 nM

Question: And the GI50 (NCI-H23 lung)?
Answer: 134 nM

Question: And the TGI (NCI-H23 lung)?
Answer: 263 nM

Question: What about the GI50 (SN12C renal) of the same compound?
Answer: 175 nM

Question: What about the TGI (SN12C renal) of the same compound?
Answer: 315 nM

Question: What about the GI50 (MOLT-4 leukemia) of the same compound?
Answer: 150 nM

Question: What about the TGI (MOLT-4 leukemia) of the same compound?
Answer: 284 nM

Question: What about the GI50 (NCI-H522 lung) of the same compound?
Answer: 125 nM

Question: What about the TGI (NCI-H522 lung) of the same compound?
Answer: 252 nM

Question: What about the GI50 (M14 melanoma) of the same compound?
Answer: 170 nM

Question: What about the TGI (M14 melanoma) of the same compound?
Answer: 309 nM

Question: And the GI50 (RXF 393 renal)?
Answer: 78.5 nM

Question: And the TGI (RXF 393 renal)?
Answer: 206 nM

Question: And the GI50 (MDA-MB-468 breast)?
Answer: 223 nM

Question: And the TGI (MDA-MB-468 breast)?
Answer: 369 nM

Question: What about the GI50 (SK-MEL-5 melanoma) of the same compound?
Answer: 34.9 nM

Question: And the TGI (SK-MEL-5 melanoma)?
Answer: 106 nM

Question: What about the GI50 (EKVX NSCLC) of the same compound?
Answer: 162 nM

Question: What about the TGI (EKVX NSCLC) of the same compound?
Answer: 303 nM

Question: And the GI50 (MDA-MB-435 melanoma)?
Answer: 178 nM

Question: What about the TGI (MDA-MB-435 melanoma) of the same compound?
Answer: 320 nM

Question: And the GI50 (HT29 colon)?
Answer: 168 nM

Question: And the TGI (HT29 colon)?
Answer: 310 nM

Question: What about the GI50 (KM12 colon) of the same compound?
Answer: 168 nM

Question: What about the TGI (KM12 colon) of the same compound?
Answer: 310 nM

Question: And the GI50 (TK-10 renal)?
Answer: 179 nM

Question: And the TGI (TK-10 renal)?
Answer: 362 nM

Question: What about the GI50 (NCI-H322M lung) of the same compound?
Answer: 200 nM

Question: And the TGI (NCI-H322M lung)?
Answer: 374 nM

Question: And the GI50 (OVCAR-5 ovarian)?
Answer: 183 nM

Question: And the TGI (OVCAR-5 ovarian)?
Answer: 326 nM

Question: And the GI50 (NCI-H226 lung)?
Answer: 102 nM

Question: What about the TGI (NCI-H226 lung) of the same compound?
Answer: 220 nM

Question: And the GI50 (PC-3 prostate)?
Answer: 188 nM

Question: What about the TGI (PC-3 prostate) of the same compound?
Answer: 331 nM

Question: What about the GI50 (HL-60(TB) leukemia) of the same compound?
Answer: 162 nM

Question: And the TGI (HL-60(TB) leukemia)?
Answer: 300 nM

Question: What about the GI50 (NCI-H460 NSCLC) of the same compound?
Answer: 177 nM

Question: And the TGI (NCI-H460 NSCLC)?
Answer: 324 nM

Question: And the GI50 (OVCAR-3 ovarian)?
Answer: 138 nM

Question: What about the TGI (OVCAR-3 ovarian) of the same compound?
Answer: 270 nM

Question: What about the GI50 (HOP-92 NSCLC) of the same compound?
Answer: 154 nM

Question: And the TGI (HOP-92 NSCLC)?
Answer: 290 nM

Question: What about the GI50 (MALME-3M melanoma) of the same compound?
Answer: 151 nM

Question: What about the TGI (MALME-3M melanoma) of the same compound?
Answer: 284 nM

Question: And the GI50 ([…]-0 renal)?
Answer: 173 nM

Question: What about the TGI (786-0 renal) of the same compound?
Answer: 314 nM

Question: What about the GI50 (SNB-19 CNS) of the same compound?
Answer: 191 nM

Question: And the TGI (SNB-19 CNS)?
Answer: 336 nM

Question: What about the GI50 (CCRF-CEM leukemia) of the same compound?
Answer: 162 nM

Question: And the TGI (CCRF-CEM leukemia)?
Answer: 299 nM

Question: And the GI50 (COLO 205 colon)?
Answer: 193 nM

Question: What about the TGI (COLO 205 colon) of the same compound?
Answer: 339 nM

Question: What about the GI50 (MCF7 breast) of the same compound?
Answer: 142 nM

Question: And the TGI (MCF7 breast)?
Answer: 343 nM

Question: And the GI50 (T-47D breast)?
Answer: 162 nM

Question: What about the TGI (T-47D breast) of the same compound?
Answer: 299 nM

Question: And the GI50 (SF-539 CNS)?
Answer: 167 nM

Question: And the TGI (SF-539 CNS)?
Answer: 305 nM

Question: And the GI50 (RPMI-8226 leukemia)?
Answer: 20.8 nM

Question: And the TGI (RPMI-8226 leukemia)?
Answer: 41.5 nM

Question: And the GI50 (SK-OV-3 ovarian)?
Answer: 246 nM

Question: What about the TGI (SK-OV-3 ovarian) of the same compound?
Answer: 497 nM

Question: And the GI50 (OVCAR-4 ovarian)?
Answer: 184 nM

Question: What about the TGI (OVCAR-4 ovarian) of the same compound?
Answer: 325 nM

Question: And the GI50 (LOX IMVI melanoma)?
Answer: 101 nM

Question: What about the TGI (LOX IMVI melanoma) of the same compound?
Answer: 220 nM

Question: And the GI50 (K-562 leukemia)?
Answer: 134 nM

Question: What about the TGI (K-562 leukemia) of the same compound?
Answer: 269 nM

Question: And the GI50 (BT-549 breast)?
Answer: 193 nM

Question: What about the TGI (BT-549 breast) of the same compound?
Answer: 342 nM

Question: And the GI50 (UACC-257 melanoma)?
Answer: 173 nM

Question: What about the TGI (UACC-257 melanoma) of the same compound?
Answer: 313 nM

Question: And the GI50 (A549 NSCLC)?
Answer: 182 nM

Question: And the TGI (A549 NSCLC)?
Answer: 339 nM

Question: What about the GI50 (SF-268 CNS) of the same compound?
Answer: 174 nM

Question: What about the TGI (SF-268 CNS) of the same compound?
Answer: 313 nM

Question: And the GI50 (ACHN renal)?
Answer: 157 nM

Question: What about the TGI (ACHN renal) of the same compound?
Answer: 397 nM

Question: And the GI50 (HCT-15 colon)?
Answer: 155 nM

Question: And the TGI (HCT-15 colon)?
Answer: 295 nM

Question: What about the GI50 (CAKI-1 renal) of the same compound?
Answer: 170 nM

Question: What about the TGI (CAKI-1 renal) of the same compound?
Answer: 317 nM

Question: And the GI50 (HCC-2998 colon)?
Answer: 166 nM

Question: And the TGI (HCC-2998 colon)?
Answer: 305 nM

Question: And the GI50 (UO-31 renal)?
Answer: 171 nM

Question: What about the TGI (UO-31 renal) of the same compound?
Answer: 318 nM

Question: What about the GI50 (SNB-75 CNS) of the same compound?
Answer: 194 nM

Question: What about the TGI (SNB-75 CNS) of the same compound?
Answer: 338 nM

Question: What about the GI50 (SR leukemia) of the same compound?
Answer: 115 nM

Question: What about the TGI (SR leukemia) of the same compound?
Answer: 238 nM

Question: What about the GI50 (SK-MEL-28 melanoma) of the same compound?
Answer: 177 nM

Question: What about the TGI (SK-MEL-28 melanoma) of the same compound?
Answer: 318 nM

Question: And the GI50 (HS 578T breast)?
Answer: 78.8 nM

Question: And the TGI (HS 578T breast)?
Answer: 204 nM

Question: And the GI50 (OVCAR-8 ovarian)?
Answer: 159 nM

Question: And the TGI (OVCAR-8 ovarian)?
Answer: 296 nM

Question: And the GI50 (NCI/ADR-RES ovarian)?
Answer: 182 nM

Question: What about the TGI (NCI/ADR-RES ovarian) of the same compound?
Answer: 323 nM

Question: What about the GI50 (SW-620 colon) of the same compound?
Answer: 176 nM

Question: And the TGI (SW-620 colon)?
Answer: 316 nM

Question: And the GI50 (UACC-62 melanoma)?
Answer: 129 nM

Question: And the TGI (UACC-62 melanoma)?
Answer: 258 nM

Question: And the GI50 (SF-295 CNS)?
Answer: 154 nM

Question: What about the TGI (SF-295 CNS) of the same compound?
Answer: 290 nM

Question: And the GI50 (DU-145 prostate)?
Answer: 195 nM

Question: And the TGI (DU-145 prostate)?
Answer: 351 nM

Question: And the GI50 (A498 renal)?
Answer: 162 nM

Question: And the TGI (A498 renal)?
Answer: 303 nM

Question: What about the GI50 (MDA-MB-231 breast) of the same compound?
Answer: 181 nM

Question: And the TGI (MDA-MB-231 breast)?
Answer: 323 nM
